From patent publication US8133971B2, “Polypeptide specifically bound to phosphatidylserine and the use thereof” (Kyungpook National University Industry Academic Cooperation …, priority 2008, dated 2012)
Ends that are not written are not given here. fluorescein = fluorescein bonded at the N-terminus

How the values were obtained:
[1] = system: H460 cells; assay: fluorescence and confocal microscopy of peptide and annexin V marking of cells; assay type: cell-based, Human; settings: for marking of apoptotic cells (fluorescent microscope) / marking of normal cells (fluorescent microscope): fluorescein peptide 10 μM, annexin V Alexa fluor 594; for marking of normal cells (fluorescent microscope): normal H460 cells
Procedure: H460 cells are cultured in a chamber slide (Nalgen Nunc Int.) and apoptosis is induced as described in embodiment 4-1. The apoptotic cells are washed with PBS and then the cells are cultured in tyrodes buffer in the presence of a peptide marked with 10 μM of fluorescein for 30 minutes at room temperature. After that, the cells are cultured with annexin V Alexa fluor 594 (Molecular Probes) for 15 minutes at room temperature. The cells are washed with PBS and then fixed with 4% of paraformaldehyde for 5 minutes. After that, the cells are counterstained by 4′,6-diamidino-2-phenylindole (DAPI) and then the cells are treated with a mounting solution to take a picture by fluorescent microscope (Zeiss, Oberkochen, Germany).
Also as shown in the FIG. 4C, the image is taken by a laser confocal microscope (LEICA).

[2] = system: apoptotic cells (H460 cell); assay: competitive inhibition of phage binding to apoptotic cells (phage titer); assay type: cell-based, Human; settings: for phage titer of selected phage bound to apoptotic cells after peptide treatment: peptide 50 μM, H460, versus un-treated group
Procedure: The specificity of the phage to phosphatidylserine bound to apoptotic cells is tested by competitive inhibition with annexin V.
A pre-cultured group, which is cultured for 30 minutes with annexin V (10 μM) before the apoptotic cells (H460 cell) are cultured with the phage, is used for the test. And a control group, which is not pre-cultured with annexin V, is used for the test. Phages are bound and eluted as described in the embodiment 4-1 and then phage titer is measured.
And, phage titer of a group treated with the synthesized peptide (50 μM) according to CLSYYPSYC (SEQ ID NO: 1) of amino acid sequence, which is shown in the selected phage clone, is measured. Phage titer of an un-treated group and a group treated with the peptide of the control group are measured. Phages are bound and eluted as described in the embodiment 4-1 and then phage titer is measured.

[3] = system: H460 tumor xenografts; assay: in vivo homing and in vivo/ex vivo visualization in tumor xenografts; set-up: species or system BALB/c male nude mouse; settings: for ex vivo fluorescein signal from tumor tissue: tumor removed 2 hours after peptide injection; for in vivo fluorescein signal from tumor tissue: 50 μM through tail vein, after 2 hours
Procedure: All of animal experiments are carried out in accordance with guidelines of the kyoungpook national university. For tumor xenografts, H460 cells (1×10^7 cells) floated on RPMI medium containing 10% FBS are injected hypodermically at a right shoulder of a 6 week old BALB/c male nude mouse (SLC, Inc.). Then, tumor cells are allowed to grow about 0.5 to 1.0 cm for 3 weeks.
The mice having tumor cells are divided into a camptothecin treated group and untreated group, and then the camptothecin treated group is taken a dose of camptothecin (Sigma, 10 mg/kg) at 24 hours before peptide treatment. After that, fluorescein-labeled peptide (fluorescein-labeled CLSYYPSYC (SEQ ID NO: 1)) (50 μM) of the present embodiment or a control group peptide (50 μM) is injected through tail vein under isoflurane anesthesia. The peptide induced to the tumor cells are checked at every hour by the optical visualization system (ART Advanced Research Technologies Inc., Montreal, Canada) using […]/GFP filter after peptide injection. To each used mouse, baseline fluorescence of fluorescein is measured before peptide injection. The obtained image is treated and normalized by eXplore Optix optiView Software. After 2 hours of the peptide injection, the tumor is removed from the mouse and then ex vivo visualization of the tumor cell is carried out. The image is treated as above.

[4] = system: H460 cell; assay: FACS analysis of labeled peptide binding to normal or apoptotic cells; assay type: cell-based, Human; settings: fluorescein at N-end, 2.5 μM, 15 minutes; for binding of labeled peptide to apoptotic cells by FACS: apoptotic H460 cell
Procedure: Apoptotic cells are treated with a labeled peptide of the present embodiment and then FACS analyses are carried out to confirm that whether the peptide of the present embodiment is bound to phosphatidylserine of apoptotic cells or not.
The peptide used in the present embodiment has a form in which fluorescein is bonded at N-end. The peptide is synthesized according to the standard Fmoc method and separated by HPLC (Peptron Co.) before use.
The final concentration of the peptide of the present embodiment or the control group peptide (amino acid sequence: NSSVDK (SEQ ID NO: 8)) is 2.5 μM and the solution is dissolved in Hepes buffer (pH7.4, Hepes 10 mM, […] 138 mM, and with/without CaCl2). The solution is mixed with normal H460 cell or dead H460 cell (1×10^5 cells/mL) to become 0.5 mL of final volume and then cultured for 15 minutes at room temperature. The cells are washed with a binding buffer and then FACS analyses are immediately carried out (FACSScan, Becton Dickinson, San Jose, Calif.).

[5] = system: H460 tumor xenografts; assay: histological test of in vivo homing (CD31 staining, TUNEL, organs); settings: for peptide observed in tumor region stained by CD31: fluorescence microscope
From the text: For a histological test, the above mouse undergoes anesthesia and then undergoes laparotomy. PBS and 4% paraformaldehyde (PFA) fixing agent is used for perfusion, and then tumor tissue and organs are removed. After cryosection of each tissue, the peptide of the present embodiment is observed by fluorescence microscope. Tumor vessels are stained by immunohistochemistry using an antibody (BD Pharmigen) to the mouse CD31 and alexa 568 labeled secondary antibody. Cell death in a tumor tissue is verified by TUNEL ([…] terminal deoxynucleotidyl transferase-mediated dUTP nick-end labeling) analyses according to the manufacturer's manual (Chemicon Int. USA).

[6] = phosphatidylserine binding of phage clone in the presence of annexin V (phage ELISA); settings: annexin V protein 10 μM
Procedure: The phosphatidylserine binding specificity of the selected phage clone is tested by phosphatidylserine binding in the presence of annexin V.
In short, Immulon 1B microtiter plate is coated with phosphatidylcholine as described in the embodiment 1-2. Then, the plates are blocked with TBS medium containing 10 mg/mL of BSA for 1 hour at room temperature.
The selected phage clone is added to 100 μl of TBS buffer and then the mixture is added to the well coated with phosphatidylcholine. The well is gently shaken for 1 hour at room temperature (incubate). In a group in which annexin V is added, the above phage clone is cultured in the presence of annexin V protein (10 μM) and then 100 μl of TBS buffer is added to the phage clone. The mixture is added to the well coated with phosphatidylserine and then the well is gently shaken for 1 hour at room temperature. The well is strongly washed with TBS-T (TBS containing 0.05% Tween-20) buffer for 6 times and then phages bound to the well are detected by binding HRP (horseradish peroxidase)-bound anti-M13 antibody (New England Biolabs) (dilution, 1:4000 in TBS-T) for 1 hour at room temperature. After that, color reaction is carried out with HRP substrate suspension (TMB, Pierce). The color reaction is stopped by adding 2N H2SO4 and then absorbance is measure by the microplate reader (Bio-Rad, model 550) at 450 nm.

[7] = annexin V binding test of coated plate; settings: his-tagged recombinant annexin V 20 μg/mL, 1 hour at room temperature
Procedure: For the preparation of a plate (or well) coated by phosphatidylserine or phosphatidylcholine, phosphatidylserine or phosphatidylcholine is dissolved in ethanol (300 μg/mL, 100 μL), and then the solution is placed and dried in Immulon 1B microtiter plate (Thermo, Milford, Mass., USA) for 6 hours in air. To prevent from non-specific binding, TBS (Tris-HCl 50 mM, pH7.4, NaCl 150 mM) containing 10 mg/mL of BSA (bovine serum albumin) is added to the solution and then blocking is performed for 1 hours at room temperature. The plates coated by phosphatidylserine or phosphatidylcholine are evaluated by annexin V binding test so as to use a coated plate.
To bind annexin V, his-tagged recombinant annexin V protein (20 μg/mL) is dissolved in TBS buffer containing 10 mg/mL of BSA and then the solution is placed ELISA plate coated by phosphatidylserine or phosphatidylcholine. After 1 hour of standing at room temperature, the plate is washed by TBS-T buffer for 3 times and the bound annexin V protein is reacted with mouse anti histidine IgG antibody (Santa Cruz Biotechnology) to which HRP is bound and then binding is tested by the reaction with TBM base.

Substance | marking of apoptotic cells (fluorescent microscope) ([1]; apoptotic H460 cells) | binding site on apoptotic cells compared with annexin V ([1]; apoptotic H460 cells, photo composition / laser confocal microscope) | marking of normal cells (fluorescent microscope) [1] | phage titer of selected phage bound to apoptotic cells after peptide treatment [2] | ex vivo fluorescein signal from tumor tissue [3] | binding of labeled peptide to apoptotic cells by FACS [4] | binding of labeled peptide to normal cells by FACS ([4]; normal H460 cell) | location of peptide fluorescent signal relative to TUNEL staining in tumor ([5]; TUNEL analyses of tumor tissue) | peptide observed in liver and lung tissue ([5]; control group organs, cryosection) | peptide observed in tumor region stained by CD31 ([5]; cryosection) | fluorescence by the peptide in kidney ([5]; cryosection, excreted peptide in the uresis path) | in vivo fluorescein signal from tumor tissue [3] | phage titer of selected phage bound to apoptotic cells after annexin V pre-treatment ([2]; annexin V 10 μM, pre-cultured 30 minutes, H460) | inhibition of phosphatidylserine binding of the selected phage clone [6] | annexin V binding to coated plate [7]
CLSYYPSYC [peptide of the present embodiment] | marking is occurred in both cases | bound to the same site | marking is not occurred | greatly decreased | intensively monitored | certainly bound | not certainly bound | observed mainly in the TUNEL stained region | not observed | a large amount | observed | – | – | – | –
NSSVDK [control group peptide, reference compound] | marking is occurred in annexin V case only | – | – | no difference | very weakly monitored or not monitored | not certainly bound | – | – | – | not observed | – | very weakly monitored or not monitored | – | – | –
annexin V: annexin V protein, phosphatidylserine-binding reference (his-tagged recombinant or Alexa fluor 594 labeled) | marking is occurred | – | marking is not occurred | – | – | – | – | – | – | – | – | – | greatly decreased | inhibits | certainly bound
fluorescein-labeled CLSYYPSYC (fluorescein-CLSYYPSYC; cysteine pairing not given here) [… peptide with fluorescein bonded at N-end] | – | – | – | – | – | – | – | – | – | – | – | intensively detected | – | – | –
